Laboratory results: patent US9783511B2, “Carbamate benzoxazine propionic acids and acid derivatives for modulation of RORgamma activity and the treatment of disease” (Merck Sharp & Dohme Corp., priority 2013, dated 2017)

target: human RORgammaT-Ligand Binding Domain (LBD) (Homo sapiens (Human), UniProt P51449); experiment: RORγ-Ligand Binding Domain TR-FRET Assay (co-activator peptide SRC1_2 recruitment); assay type: biochemical; settings: HIS-tagged RORγ-LBD 3 nM, biotinylated SRC1 LXXLL peptide 100 nM, incubated overnight at 4° C., 665 nm/615 nm ratio
Source text: Activation of RORgammaT activity can be measured using, e.g., a biochemical TR-FRET assay. In such an assay, interaction of cofactor-derived peptides with human RORgammaT-Ligand Binding Domain (LBD) can be measured.
To identify novel antagonists of RORgammaT, an assay was developed which employs the interaction of RORgammaT with its co-activator peptide SRC1_2. […] The RORγ-Ligand Binding Domain TR-FRET Assay was run according to the following protocol.
HIS-tagged RORγ-LBD protein was recombinantly expressed in Escherichia coli. The RORγ-LBD protein was purified by Ni^2+-affinity resin. Purified protein was then diluted in assay buffer (50 mM Tris pH 7.0, 50 mM KCl, 1 mM EDTA, 0.1 mM DTT, 100 μg/mL bovine serum albumin, delipidated) to obtain a RORγ-LBD final concentration of 3 nM.
Compounds to be tested were injected to the 384-well assay plate using Acoustic Droplet Ejection technology by Echo 550 liquid handler (Labcyte, CA).

Chain of human RORgammaT-Ligand Binding Domain (LBD) (P51449 269-508): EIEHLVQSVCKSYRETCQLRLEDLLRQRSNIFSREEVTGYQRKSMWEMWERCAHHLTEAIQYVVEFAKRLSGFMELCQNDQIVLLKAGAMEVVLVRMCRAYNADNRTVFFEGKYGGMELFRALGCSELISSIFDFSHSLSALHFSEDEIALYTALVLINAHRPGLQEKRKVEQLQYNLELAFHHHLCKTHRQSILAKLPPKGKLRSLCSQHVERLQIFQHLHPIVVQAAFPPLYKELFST

Row | IC50 [nM] | SMILES
1 | 18.1 | CC(C)(OC(=O)Nc1ccc2c(c1)N(S(=O)(=O)c1cccc(C(F)(F)F)c1)C[C@H](CC(O)C(=O)O)O2)C(F)(F)F (mixture of isomers) [Example 15, (R and S)-2-hydroxy-3-((S)-6-((((1,1,1-trifluoro-2-methylpropan-2-yl)oxy)carbonyl)amino)-4-((3-(trifluoromethyl)phenyl)sulfonyl)-3,4-dihydro-2H-benzo[b][1,4]oxazin-2-yl)propanoic acid]
2 | 9.39 | COc1cc(S(=O)(=O)N2C[C@H](CC(O)C(=O)O)Oc3ccc(NC(=O)OC(C)(C)C(F)(F)F)cc32)ccc1F (mixture of isomers) [Example 18F, (R and S)-3-((S)-4-((4-fluoro-3-methoxyphenyl)sulfonyl)-6-((((1,1,1-trifluoro-2-methylpropan-2-yl)oxy)carbonyl)amino)-3,4-dihydro-2H-benzo[b][1,4]oxazin-2-yl)-2-hydroxypropanoic acid]
3 | 13.3 | Cc1nn(C(F)F)cc1S(=O)(=O)N1C[C@H](C[C@@H](C)C(=O)O)Oc2ccc(NC(=O)OC(C)(C)C(F)(F)F)cc21 (single isomer, unassigned) [Example 6BG, (R or S)-3-((S)-4-((1-(difluoromethyl)-3-methyl-1H-pyrazol-4-yl)sulfonyl)-6-((((1,1,1-trifluoro-2-methylpropan-2-yl)oxy)carbonyl)amino)-3,4-dihydro-2H-benzo[b][1,4]oxazin-2-yl)-2-methylpropanoic acid]
4 | 26.6 | CCOc1sc(C2CC2)nc1S(=O)(=O)N1C[C@H](C[C@@H](C)C(=O)O)Oc2ccc(NC(=O)OC(C)(C)C(F)(F)F)cc21 (single isomer, unassigned) [Example 6BP, (R or S)-3-((S)-4-((2-cyclopropyl-5-ethoxythiazol-4-yl)sulfonyl)-6-((((1,1,1-trifluoro-2-methylpropan-2-yl)oxy)carbonyl)amino)-3,4-dihydro-2H-benzo[b][1,4]oxazin-2-yl)-2-methylpropanoic acid]
5 | 12.3 | CCc1nc(S(=O)(=O)N2C[C@H](C[C@@H](C)C(=O)O)Oc3ccc(NC(=O)OC(C)(C)C(F)(F)F)cc32)c(OCC(F)(F)F)s1 (single isomer, unassigned) [Example 6BR, (R or S)-3-((S)-4-((2-ethyl-5-(2,2,2-trifluoroethoxy)thiazol-4-yl)sulfonyl)-6-((((1,1,1-trifluoro-2-methylpropan-2-yl)oxy)carbonyl)amino)-3,4-dihydro-2H-benzo[b][1,4]oxazin-2-yl)-2-methylpropanoic acid]
6 | 11.9 | CCOc1sc(CC)nc1S(=O)(=O)N1C[C@H](C[C@@H](C)C(=O)O)Oc2ccc(NC(=O)OC(C)(C)C(F)(F)F)cc21 (single isomer, unassigned) [Example 6Bo, (R or S)-3-((S)-4-((5-ethoxy-2-ethylthiazol-4-yl)sulfonyl)-6-((((1,1,1-trifluoro-2-methylpropan-2-yl)oxy)carbonyl)amino)-3,4-dihydro-2H-benzo[b][1,4]oxazin-2-yl)-2-methylpropanoic acid]
7 | 14.5 | Cc1cccc(S(=O)(=O)N2C[C@H](C[C@@H](C)C(=O)O)Oc3ccc(NC(=O)OC(C)(C)C(F)(F)F)cc32)c1 (single isomer, unassigned) [Example 6CK, (S or R)-2-methyl-3-((S)-4-(m-tolylsulfonyl)-6-((((1,1,1-trifluoro-2-methylpropan-2-yl)oxy)carbonyl)amino)-3,4-dihydro-2H-benzo[b][1,4]oxazin-2-yl)propanoic acid]
8 | 5.25 | C[C@H](C[C@H]1CN(S(=O)(=O)c2cccc(OC(F)F)c2)c2cc(NC(=O)OC(C)(C)C(F)(F)F)ccc2O1)C(=O)O (single isomer, unassigned) [Example 6CM, (S or R)-3-((S)-4-((3-(difluoromethoxy)phenyl)sulfonyl)-6-((((1,1,1-trifluoro-2-methylpropan-2-yl)oxy)carbonyl)amino)-3,4-dihydro-2H-benzo[b][1,4]oxazin-2-yl)-2-methylpropanoic acid]
9 | 11.6 | Cc1cccc(S(=O)(=O)N2C[C@H](C[C@H](C)C(=O)O)Oc3ccc(NC(=O)OC(C)(C)C(F)(F)F)cc32)c1 (single isomer, unassigned) [Example 6CP, (S or R)-2-methyl-3-((S)-4-(m-tolylsulfonyl)-6-((((1,1,1-trifluoro-2-methylpropan-2-yl)oxy)carbonyl)amino)-3,4-dihydro-2H-benzo[b][1,4]oxazin-2-yl)propanoic acid]
10 | 17.8 | C[C@@H](C[C@H]1CN(S(=O)(=O)c2cccc(C3CC3)c2)c2cc(NC(=O)OC(C)(C)C(F)(F)F)ccc2O1)C(=O)O (single isomer, unassigned) [Example 6CU, (S or R)-3-((S)-4-((3-cyclopropylphenyl)sulfonyl)-6-((((1,1,1-trifluoro-2-methylpropan-2-yl)oxy)carbonyl)amino)-3,4-dihydro-2H-benzo[b][1,4]oxazin-2-yl)-2-methylpropanoic acid]
11 | 10.2 | C[C@H](C[C@H]1CN(S(=O)(=O)c2cccc(C3CC3)c2)c2cc(NC(=O)OC(C)(C)C(F)(F)F)ccc2O1)C(=O)O (single isomer, unassigned) [Example 6CW, (R or S)-3-((S)-4-((3-cyclopropylphenyl)sulfonyl)-6-((((1,1,1-trifluoro-2-methylpropan-2-yl)oxy)carbonyl)amino)-3,4-dihydro-2H-benzo[b][1,4]oxazin-2-yl)-2-methylpropanoic acid]
12 | 15.3 | C[C@H](C[C@H]1CN(S(=O)(=O)c2ccnc(C(F)(F)F)c2)c2cc(NC(=O)OC(C)(C)C(F)(F)F)ccc2O1)C(=O)O (single isomer, unassigned) [Example 6CZ, (R or S)-2-methyl-3-((S)-6-((((1,1,1-trifluoro-2-methylpropan-2-yl)oxy)carbonyl)amino)-4-((2-(trifluoromethyl)pyridin-4-yl)sulfonyl)-3,4-dihydro-2H-benzo[b][1,4]oxazin-2-yl)propanoic acid]
13 | 8.38 | C[C@@H](C[C@H]1CN(S(=O)(=O)c2cccc(OC(F)F)c2)c2cc(NC(=O)OC(C)(C)C(F)(F)F)ccc2O1)C(=O)O (single isomer, unassigned) [Example 6Co, (S or R)-3-((S)-4-((3-(difluoromethoxy)phenyl)sulfonyl)-6-((((1,1,1-trifluoro-2-methylpropan-2-yl)oxy)carbonyl)amino)-3,4-dihydro-2H-benzo[b][1,4]oxazin-2-yl)-2-methylpropanoic acid]
14 | 14.9 | C[C@@H](C[C@H]1CN(S(=O)(=O)c2ccnc(C(F)(F)F)c2)c2cc(NC(=O)OC(C)(C)C(F)(F)F)ccc2O1)C(=O)O (single isomer, unassigned) [Example 6DA, (R or S)-2-methyl-3-((S)-6-((((1,1,1-trifluoro-2-methylpropan-2-yl)oxy)carbonyl)amino)-4-((2-(trifluoromethyl)pyridin-4-yl)sulfonyl)-3,4-dihydro-2H-benzo[b][1,4]oxazin-2-yl)propanoic acid]
15 | 11.5 | C[C@H](C[C@H]1CN(S(=O)(=O)c2ccnc(C3CC3)c2)c2cc(NC(=O)OC(C)(C)C(F)(F)F)ccc2O1)C(=O)O (single isomer, unassigned) [Example 6DB, (R or S)-3-((S)-4-((2-cyclopropylpyridin-4-yl)sulfonyl)-6-((((1,1,1-trifluoro-2-methylpropan-2-yl)oxy)carbonyl)amino)-3,4-dihydro-2H-benzo[b][1,4]oxazin-2-yl)-2-methylpropanoic acid]
16 | 16.2 | C[C@@H](C[C@H]1CN(S(=O)(=O)c2ccnc(C3CC3)c2)c2cc(NC(=O)OC(C)(C)C(F)(F)F)ccc2O1)C(=O)O (single isomer, unassigned) [Example 6DC, (R or S)-3-((S)-4-((2-cyclopropylpyridin-4-yl)sulfonyl)-6-((((1,1,1-trifluoro-2-methylpropan-2-yl)oxy)carbonyl)amino)-3,4-dihydro-2H-benzo[b][1,4]oxazin-2-yl)-2-methylpropanoic acid]
17 | 23.6 | C[C@H](C[C@H]1CN(S(=O)(=O)c2cn(C(F)F)nc2Cl)c2cc(NC(=O)OC(C)(C)C(F)(F)F)ccc2O1)C(=O)O (single isomer, unassigned) [Example 6DD, (R or S)-3-((S)-4-((3-chloro-1-(difluoromethyl)-1H-pyrazol-4-yl)sulfonyl)-6-((((1,1,1-trifluoro-2-methylpropan-2-yl)oxy)carbonyl)amino)-3,4-dihydro-2H-benzo[b][1,4]oxazin-2-yl)-2-methylpropanoic acid]
18 | 40.3 | C[C@@H](C[C@H]1CN(S(=O)(=O)c2cn(C(F)F)nc2Cl)c2cc(NC(=O)OC(C)(C)C(F)(F)F)ccc2O1)C(=O)O (single isomer, unassigned) [Example 6DE, (R or S)-3-((S)-4-((3-chloro-1-(difluoromethyl)-1H-pyrazol-4-yl)sulfonyl)-6-((((1,1,1-trifluoro-2-methylpropan-2-yl)oxy)carbonyl)amino)-3,4-dihydro-2H-benzo[b][1,4]oxazin-2-yl)-2-methylpropanoic acid]
19 | 12.8 | CC[C@H](C[C@H]1CN(S(=O)(=O)c2cccc(C3CC3)c2)c2cc(NC(=O)OC(C)(C)C(F)(F)F)ccc2O1)C(=O)O (single isomer, unassigned) [Example 10D, (R or S)-2-(((S)-4-((3-cyclopropylphenyl)sulfonyl)-6-((((1,1,1-trifluoro-2-methylpropan-2-yl)oxy)carbonyl)amino)-3,4-dihydro-2H-benzo[b][1,4]oxazin-2-yl)methyl)butanoic acid]
